Measured values published in article PMC5578999, “Novel quinolone chalcones targeting colchicine-binding pocket kill multidrug-resistant cancer cells by inhibiting tubulin activity and MRP1 function” (Scientific Reports, 2017).

What was measured:
Assay type in all cases: cell-based
[1] = tested on: MDA-MB-468; assay: SRB cell viability/proliferation; settings: Homo sapiens
Procedure: (§1) and MCF10AT1 cells were cultured in Dulbecco's Modified Eagle's Medium/Ham's Nutrient Mixture F-12 (DME/F12) supplemented with 10% (volume/volume) FBS , 100 μg/ml streptom ycin and 100 units/ml penicillin, antim ycotic solution, 0.5 μg/ml hydrocortisone, 10 ng/ml human epiderm al growth factor (hEGF) and 5 μg/ml insulin, whereas MCF10CA1a cell line was cultured in DM EM supplemented with 10% FBS (volume/volume). KB-3- 1, parental human epidermoid carcinoma cell line and KB-C2, an isogenic MDR1- overexpressing drug-resistant cell line, were kindl y provided b y Dr. Amit K Tiwari, the Universit y of Toledo, OH.
(§2) Parental HEK293 and M RP1- overexpressing HEK293- MRP1 isogenic cel ls were kind gifts of Dr. Susan Cole (Queen’s Universit y, Kingston, Ontario, Canada). The pacl itaxel-resistant MDA-MB-231TaxR cell line was generated in house b y culturing MDA-MB-231 cells (purchased from ATCC and authen ticated ) in the gradual l y incr easi ng con centr ations of pacl itax el until the concentration reached to 100 nM. Cell line authentication was carried out by Genetica DNA Laboratories (Burlington, NC) using a short tandem repeat (STR) profiling method (March 2015; […]
(§3) Cell cycl e pro gr ession in the absence (sham) o r pr esence o f compound(s ) was determined with a Beckman Coulter Epics Elite FC 500 Flow C ytom eter as described previousl y (Romero

[2] = tested on: U87MG; assay: SRB cell viability/proliferation; settings: Homo sapiens, U-87 MG
Procedure: as §1, §2, §3

[3] = tested on: MCF 10AT1; assay: SRB cell survival, MCF 10A isogenic lines; settings: 0.39 μmol/L; MCF 10AT1 (premalignant)
Procedure: as §1, §2
(§4) Cell viability, com binational i ndex and cell synchronization
(§5) Cell viability and proliferation were ex amined using a s ulforhodamine B (SRB) assa y as described previousl y (Hu et al., 2008). IC 50 values were calculat ed from si gmoidal dose-response cu rves gen erat ed b y at least two indepen dent ex periments , with each quadruplicate samples, using GraphPad Prism v.5.04 software (GraphPad Software, Inc, La J olla, CA). For combinational experiments on the KB -C-2 cells, CTR compounds and pacli taxel or ABT - 737/ABT-199 w ere us ed at or below IC 50 . The combinational index (CI) w as calculat ed as previousl y described (Chou, 2006). […]
as §3

[4] = tested on: MCF 10A; assay: SRB cell survival, MCF 10A isogenic lines; settings: 0.39 μmol/L; MCF 10A (non-cancer)
Procedure: as §1, §2, §4, §5, §3

[5] = tested on: MCF 10CA1a; assay: SRB cell survival, MCF 10A isogenic lines; settings: 0.39 μmol/L; MCF 10AC1a (fully malignant)
Procedure: as §1, §2, §4, §5, §3

[6] = tested on: MDR1; assay: Rh123 dye efflux assay, KB-C-2 cells; settings: MDR1, KB-C-2 cells; 22 µmol/L of drug; DMSO control 58.0%
Procedure: (§6) Rhodamine123 (Rh123) drug efflux was carried out using a Multidrug-Resistance Direct Dye Efflux Activity Kit (Millipore, Darmstadt, Germany), with some modifications. […] Reading was carried out with a Beckman Coulter FC500 flow cytometer.

[7] = molecular target: T1, MRP1 (Homo sapiens, UniProt P33527); assay: Rh123 dye efflux assay, HEK293-MRP1 cells; settings: 22 µmol/L of drug, DMSO control 39.6%
T1 construct: expressed in transfected cells; host or cells: HEK293-MRP1 (gift of Dr. Susan Cole)
T1 sequence (P33527 whole entry): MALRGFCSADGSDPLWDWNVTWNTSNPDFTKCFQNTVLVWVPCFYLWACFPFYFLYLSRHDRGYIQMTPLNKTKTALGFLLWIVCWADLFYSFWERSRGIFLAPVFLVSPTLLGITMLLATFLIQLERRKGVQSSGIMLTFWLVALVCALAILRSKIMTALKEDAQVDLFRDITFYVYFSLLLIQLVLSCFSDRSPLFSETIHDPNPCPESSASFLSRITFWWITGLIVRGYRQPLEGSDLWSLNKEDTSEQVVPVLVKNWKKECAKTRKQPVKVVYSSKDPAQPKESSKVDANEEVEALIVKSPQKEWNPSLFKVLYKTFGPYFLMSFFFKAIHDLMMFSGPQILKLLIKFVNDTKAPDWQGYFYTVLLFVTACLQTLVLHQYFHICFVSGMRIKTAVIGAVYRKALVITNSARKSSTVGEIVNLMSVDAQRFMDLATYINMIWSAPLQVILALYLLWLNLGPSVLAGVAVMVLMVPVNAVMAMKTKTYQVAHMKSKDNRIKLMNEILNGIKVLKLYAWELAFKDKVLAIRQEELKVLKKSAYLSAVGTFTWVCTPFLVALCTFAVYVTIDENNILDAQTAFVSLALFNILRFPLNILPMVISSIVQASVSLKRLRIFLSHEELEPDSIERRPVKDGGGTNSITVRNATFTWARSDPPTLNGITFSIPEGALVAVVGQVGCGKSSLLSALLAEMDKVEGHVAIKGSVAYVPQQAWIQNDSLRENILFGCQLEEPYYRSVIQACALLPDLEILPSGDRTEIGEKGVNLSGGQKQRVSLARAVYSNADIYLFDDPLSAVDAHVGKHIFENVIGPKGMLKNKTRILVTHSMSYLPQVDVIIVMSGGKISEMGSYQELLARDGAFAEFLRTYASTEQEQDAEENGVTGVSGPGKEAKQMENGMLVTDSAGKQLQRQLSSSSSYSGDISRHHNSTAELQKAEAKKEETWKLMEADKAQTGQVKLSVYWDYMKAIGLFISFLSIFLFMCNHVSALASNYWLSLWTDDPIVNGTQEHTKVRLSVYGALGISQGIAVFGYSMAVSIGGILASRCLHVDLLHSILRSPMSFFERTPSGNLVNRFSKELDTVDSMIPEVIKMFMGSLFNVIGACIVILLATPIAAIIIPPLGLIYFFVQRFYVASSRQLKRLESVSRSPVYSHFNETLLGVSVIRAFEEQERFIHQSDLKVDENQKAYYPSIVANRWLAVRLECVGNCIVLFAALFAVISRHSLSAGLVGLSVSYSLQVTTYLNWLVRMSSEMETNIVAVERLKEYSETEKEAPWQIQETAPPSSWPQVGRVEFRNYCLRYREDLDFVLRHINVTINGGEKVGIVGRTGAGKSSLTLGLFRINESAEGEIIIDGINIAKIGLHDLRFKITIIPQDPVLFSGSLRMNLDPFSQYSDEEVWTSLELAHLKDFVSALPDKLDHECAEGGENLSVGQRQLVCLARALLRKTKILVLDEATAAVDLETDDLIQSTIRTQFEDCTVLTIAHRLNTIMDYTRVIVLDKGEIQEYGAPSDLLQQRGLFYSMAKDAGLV
Procedure: as §6

[8] = tested on: ACHN; assay: NCI-60 SRB screen; settings: 1.00E-5 Molar
From the text: (§7) Supplementary Table S 3: Antitumor activity of CTR -17 and CTR -20, alone or in combination […]
(§8) a Tax: paclitaxel. b mg per kg of bod y wei ght. c unit is mm 3.
(§9) Supplementary Figure l egend
(§10) 10μ M of CTR-20 was used to examine the drug’s efficac y against the NC I-60 cancer cell li nes including: six leukemia cell lines, nine non- small cell lung cancer cell lines, seven color ect al cancer cell lines, six CNS cancer cell lines, nine melanoma cell lines, seven ovari an can cer cell lines, seven ren al can cer cell lines, two prostate cancer cell lines and six breast cancer cell lines. The scr eenin g was car r ied out b y the US National Cancer Institute (NC I) us i n g a sulforhodamine B (SRB) colorimetric assay. […]
(§11) out by the NC I using five different doses of CTR -20.

[9] = tested on: COLO 205; assay: NCI-60 SRB screen; settings: 1.00E-5 Molar
From the text: as §7, §8, §9, §10, §11

[10] = tested on: HCT-116; assay: NCI-60 SRB screen
From the text: as §7, §8, §9, §10, §11

[11] = tested on: HS 578T; assay: NCI-60 SRB screen
From the text: as §7, §8, §9, §10, §11

[12] = tested on: MOLT-4; assay: NCI-60 SRB screen
From the text: as §7, §8, §9, §10, §11

[13] = tested on: SNB-75; assay: NCI-60 SRB screen
From the text: as §7, §8, §9, §10, §11

[14] = tested on: NCI-60 cancer cell lines; assay: NCI-60 SRB screen, panel means; settings: mean of panel
From the text: as §7, §8, §9, §10, §11

[15] = Homo sapiens, read-out: LC50 (the source's name)

COc1ccc2[nH]c(=O)c(/C=C/C(=O)c3ccccc3OC)cc2c1 [CTR-20, (E)-6-Methoxy-3-(3-(2-methoxyphenyl)-3-oxoprop-1-enyl) quinolin-2(1H)-one]
IC50 [1]: 0.12 µM
IC50 [2]: 1.11 µM
cell survival rate [3]: 20%
cell survival rate [4]: 75%
cell survival rate [5]: 10%
Rh123 retention [6]: 57.9%
Rh123 retention [7]: 81.7%
Growth Percent [8]: 38.84%
Growth Percent [9]: 20.45%
Log10GI50 [10]: -6.46 Molar
Log10LC50 [10]: -5.26 Molar
Log10TGI [10]: -5.83 Molar
TGI [10]: 1.48E-6 Molar
Growth Percent ([10]; 1.00E-5 Molar): 16.04%
GI50 ([10]; Homo sapiens): 0.348 µM
CC50 [10, 15]: 5.48 µM
Percent Growth ([10]; Log10 Concentration -4.0): -96%
Percent Growth ([10]; Log10 Concentration -5.0): -73%
Percent Growth ([10]; Log10 Concentration -6.0): 15%
Percent Growth ([10]; Log10 Concentration -7.0): 92%
Percent Growth ([10]; Log10 Concentration -8.0): 94%
Log10LC50 [11]: > -4.00 Molar
Log10TGI [11]: -4.08 Molar
TGI [11]: 8.38E-5 Molar
Growth Percent ([11]; 1.00E-5 Molar): 8.33%
CC50 [11, 15]: > 100 µM
Percent Growth ([11]; Log10 Concentration -4.0): -8%
Percent Growth ([11]; Log10 Concentration -5.0): 91%
Percent Growth ([11]; Log10 Concentration -6.0): 37%
Percent Growth ([11]; Log10 Concentration -7.0): 98%
Percent Growth ([11]; Log10 Concentration -8.0): 96%
Log10GI50 [12]: -6.38 Molar
Log10LC50 [12]: > -4.00 Molar
Log10TGI [12]: -4.57 Molar
TGI [12]: 2.71E-5 Molar
Growth Percent ([12]; 1.00E-5 Molar): 10.88%
GI50 ([12]; Homo sapiens): 0.421 µM
CC50 [12, 15]: > 100 µM
Percent Growth ([12]; Log10 Concentration -4.0): -12%
Percent Growth ([12]; Log10 Concentration -5.0): 9%
Percent Growth ([12]; Log10 Concentration -6.0): 21%
Percent Growth ([12]; Log10 Concentration -7.0): 98%
Percent Growth ([12]; Log10 Concentration -8.0): 97%
Log10GI50 [13]: -6.33 Molar
Log10LC50 [13]: -4.42 Molar
Log10TGI [13]: -4.85 Molar
TGI [13]: 1.42E-5 Molar
Growth Percent ([13]; 1.00E-5 Molar): -11.48%
GI50 ([13]; Homo sapiens): 0.47 µM
CC50 [13, 15]: 37.8 µM
Percent Growth ([13]; Log10 Concentration -4.0): -100%
Percent Growth ([13]; Log10 Concentration -5.0): 18%
Percent Growth ([13]; Log10 Concentration -6.0): 34%
Percent Growth ([13]; Log10 Concentration -7.0): 82%
Percent Growth ([13]; Log10 Concentration -8.0): 86%
Mean Growth Percent ([14]; 1.00E-5 Molar): 13.21%
Log10GI50 _MID [14]: -6.21 Molar
Log10LC50 _MID [14]: -4.58 Molar
Log10TGI _MID [14]: -5.29 Molar
